Laboratory results reported in patent US12660819B2, “Herbicidal derivatives” (SYNGENTA CROP PROTECTION AG, priority 2020, dated 2026).

Experiments:
Assay type in all cases: in vivo
[1] = tested on: Amaranthus retoflexus (AMARE); assay: Post-emergence Test (glasshouse, percentage damage to the plant); conditions: 1000 g/ha unless otherwise stated, evaluated after 13 days; for AMARE, percentage damage caused to the plant (five-point scale): post-emergence
Method in brief: (§1)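 After sowing in standard soil, pots were kept at 24/16 °C (day/night), 14 h light and 65% humidity. They were sprayed at 1000 g/ha unless otherwise stated, watered twice daily, and assessed for percentage damage at 13 days on a 1–5 scale.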

Setaria faberi (SETFA) [2] = assay: as above; conditions: 1000 g/ha unless otherwise stated, evaluated after 13 days; for SETFA, percentage damage caused to the plant (five-point scale): post-emergence
Method in brief: (§2)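 Spray treatment of sown glasshouse pots at 1000 g/ha (default rate), vehicle acetone/water 50:50 plus 0.5% Tween 20. Read-out: percentage damage after 13 days, converted to a score where 5 denotes 81-100% and 1 denotes 0-20%.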

Zea mays (ZEAMX) [3] = assay: as above; conditions: 1000 g/ha unless otherwise stated, evaluated after 13 days; for ZEAMX, percentage damage caused to the plant (five-point scale): post-emergence
Method in brief: as §2

[4] = tested on: Amaranthus palmeri (AMAPA); assay: as above; conditions: 1000 g/ha unless otherwise stated, evaluated after 13 days; for AMAPA, percentage damage caused to the plant (five-point scale): post-emergence
Method in brief: as §1

[5] = tested on: Ipomoea hederacea (IPOHE); assay: as above; conditions: 1000 g/ha unless otherwise stated, evaluated after 13 days; for IPOHE, percentage damage caused to the plant (five-point scale): post-emergence
Method in brief: as §2

Zea mays (ZEAMX) [6] = assay: Pre-emergence Test (glasshouse, percentage damage to the plant); conditions: 1000 g/ha unless otherwise stated; for percentage damage to the plant, ZEAMX (five-point scale): Zea mays
[7] = tested on: Echinochloa crus-galli (ECHCG); assay: as above; conditions: 1000 g/ha unless otherwise stated; for percentage damage to the plant, ECHCG (five-point scale): Echinochloa crus-galli
[8] = tested on: Ipomoea hederacea (IPOHE); assay: as above; conditions: 1000 g/ha unless otherwise stated; for percentage damage to the plant, IPOHE (five-point scale): Ipomoea hederacea
[9] = tested on: Amaranthus palmeri (AMAPA); assay: as above; conditions: 1000 g/ha unless otherwise stated; for percentage damage to the plant, AMAPA (five-point scale): Amaranthus palmeri
[10] = tested on: Amaranthus retoflexus (AMARE); assay: as above; conditions: 1000 g/ha unless otherwise stated; for percentage damage to the plant, AMARE (five-point scale): Amaranthus retoflexus
Setaria faberi (SETFA) [11] = assay: as above; conditions: 1000 g/ha unless otherwise stated; for percentage damage to the plant, SETFA (five-point scale): Setaria faberi

Row | SMILES | AMARE, percentage damage caused to the plant (five-point scale) [1] | SETFA, percentage damage caused to the plant (five-point scale) (Setaria faberi (SETFA) [2]) | ZEAMX, percentage damage caused to the plant (five-point scale) (Zea mays (ZEAMX) [3]) | AMAPA, percentage damage caused to the plant (five-point scale) [4] | IPOHE, percentage damage caused to the plant (five-point scale) [5] | percentage damage to the plant, ZEAMX (five-point scale) (Zea mays (ZEAMX) [6]) | percentage damage to the plant, ECHCG (five-point scale) [7] | percentage damage to the plant, IPOHE (five-point scale) [8] | percentage damage to the plant, AMAPA (five-point scale) [9] | percentage damage to the plant, AMARE (five-point scale) [10] | percentage damage to the plant, SETFA (five-point scale) (Setaria faberi (SETFA) [11]) | other results
1 | CCn1c(C)c(-c2cc(C)ccc2F)c(=O)c(C(=O)O)c1-c1ccc(Cl)c(Cl)c1 [Compound 231, 2-(3,4-dichlorophenyl)-1-ethyl-5-(2-fluoro-5-methyl-phenyl)-6-methyl-4-oxo-pyridine-3-carboxylic acid] | 5 (5=81-100%) | 3 (3=41-60%) | 1 (1=0-20%) | 5 (5=81-100%) | 3 (3=41-60%) | 0 | 2 (2=21-40%) | 0 | 4 (4=61-80%) | 3 (3=41-60%) | 4 (4=61-80%) | –
2 | CCn1c(C)c(-c2cc(C)ccc2C)c(=O)c(C(=O)O)c1-c1ccc(Cl)c(Cl)c1 [Compound 225, 2-(3,4-dichlorophenyl)-5-(2,5-dimethylphenyl)-1-ethyl-6-methyl-4-oxo-pyridine-3-carboxylic acid] | 4 (4=61-80%) | 1 (1=0-20%) | 1 (1=0-20%) | 5 (5=81-100%) | 1 (1=0-20%) | 0 | 1 (1=0-20%) | 0 | 0 | 0 | 0 | –
3 | CCn1c(C)c(-c2cc(Cl)ccc2F)c(=O)c(C(=O)O)c1-c1ccc(Cl)c(Cl)c1 [Compound 229, 5-(5-chloro-2-fluoro-phenyl)-2-(3,4-dichlorophenyl)-1-ethyl-6-methyl-4-oxo-pyridine-3-carboxylic acid] | 5 (5=81-100%) | 1 (1=0-20%) | 1 (1=0-20%) | 5 (5=81-100%) | 3 (3=41-60%) | 0 | 0 | 1 (1=0-20%) | 4 (4=61-80%) | 4 (4=61-80%) | 1 (1=0-20%) | –
4 | CCn1c(C)c(-c2cccc(C)c2F)c(=O)c(C(=O)O)c1-c1ccc(Cl)c(Cl)c1 [Compound 228, 2-(3,4-dichlorophenyl)-1-ethyl-5-(2-fluoro-3-methyl-phenyl)-6-methyl-4-oxo-pyridine-3-carboxylic acid] | 4 (4=61-80%) | 3 (3=41-60%) | 2 (2=21-40%) | 5 (5=81-100%) | 3 (3=41-60%) | 2 (2=21-40%) | 5 (5=81-100%) | 3 (3=41-60%) | 4 (4=61-80%) | 2 (2=21-40%) | 5 (5=81-100%) | –
5 | CCn1c(C)c(-c2cc(C)nn2C)c(=O)c(C(=O)O)c1-c1ccc(Cl)c(Cl)c1 [Compound 240, 2-(3,4-dichlorophenyl)-5-(2,5-dimethylpyrazol-3-yl)-1-ethyl-6-methyl-4-oxo-pyridine-3-carboxylic acid] | 3 (3=41-60%) | 4 (4=61-80%) | 1 (1=0-20%) | 4 (4=61-80%) | 4 (4=61-80%) | 0 | 3 (3=41-60%) | 1 (1=0-20%) | 0 | 0 | 5 (5=81-100%) | –
6 | CCn1c(C)c(-c2cc(F)ccc2OC)c(=O)c(C(=O)O)c1-c1ccc(Cl)c(Cl)c1 [Compound 235, 2-(3,4-dichlorophenyl)-1-ethyl-5-(5-fluoro-2-methoxy-phenyl)-6-methyl-4-oxo-pyridine-3-carboxylic acid] | 3 (3=41-60%) | 2 (2=21-40%) | 1 (1=0-20%) | 4 (4=61-80%) | 3 (3=41-60%) | 0 | 0 | 0 | 3 (3=41-60%) | 0 | 0 | –
7 | CCN(CC)S(=O)(=O)c1ccc(-c2c(C)n(CC)c(-c3ccc(Cl)c(Cl)c3)c(C(=O)O)c2=O)cc1 [Compound 237, 2-(3,4-dichlorophenyl)-5-[4-(diethylsulfamoyl)phenyl]-1-ethyl-6-methyl-4-oxo-pyridine-3-carboxylic acid] | 1 (1=0-20%) | 3 (3=41-60%) | 1 (1=0-20%) | 4 (4=61-80%) | 2 (2=21-40%) | 0 | 2 (2=21-40%) | 0 | 1 (1=0-20%) | 0 | 1 (1=0-20%) | –
8 | CCn1c(C)c(-c2ccc(Cl)cc2SC)c(=O)c(C(=O)O)c1-c1ccc(Cl)c(Cl)c1 [Compound 158, 5-(4-chloro-2-methylsulfanyl-phenyl)-2-(3,4-dichlorophenyl)-1-ethyl-6-methyl-4-oxo-pyridine-3-carboxylic acid] | – | – | – | – | – | – | – | – | – | – | – | Post-emergence Test AMARE, percentage damage to the plant (five-point scale) ([1]; post-emergence spray): 4 (4=61-80%); Post-emergence Test SETFA, percentage damage to the plant (five-point scale) (Setaria faberi (SETFA) [2]; post-emergence spray): 1 (1=0-20%); Post-emergence Test ZEAMX, percentage damage to the plant (five-point scale) (Zea mays (ZEAMX) [3]; post-emergence spray): 1 (1=0-20%); Post-emergence Test AMAPA, percentage damage to the plant (five-point scale) ([4]; post-emergence spray): 5 (5=81-100%); Post-emergence Test IPOHE, percentage damage to the plant (five-point scale) ([5]; post-emergence spray): 2 (2=21-40%); percentage damage to the plant, ZEAMX (Zea mays (ZEAMX) [6]; five-point scale): 0; percentage damage to the plant, ECHCG ([7]; five-point scale): 0; percentage damage to the plant, IPOHE ([8]; five-point scale): 0; percentage damage to the plant, AMAPA ([9]; five-point scale): 3 (3=41-60%); percentage damage to the plant, AMARE ([10]; five-point scale): 0; percentage damage to the plant, SETFA (Setaria faberi (SETFA) [11]; five-point scale): 0
9 | CCn1c(C)c(-c2cc(F)ccc2C)c(=O)c(C(=O)O)c1-c1ccc(Cl)c(Cl)c1 [Compound 222, 2-(3,4-dichlorophenyl)-1-ethyl-5-(5-fluoro-2-methyl-phenyl)-6-methyl-4-oxo-pyridine-3-carboxylic acid] | 3 (3=41-60%) | 3 (3=41-60%) | 1 (1=0-20%) | 5 (5=81-100%) | 3 (3=41-60%) | 1 (1=0-20%) | 1 (1=0-20%) | 1 (1=0-20%) | 1 (1=0-20%) | 1 (1=0-20%) | 1 (1=0-20%) | –
10 | CCn1c(C)c(-c2ccc(C)cc2F)c(=O)c(C(=O)O)c1-c1ccc(Cl)c(Cl)c1 [Compound 236, 2-(3,4-dichlorophenyl)-1-ethyl-5-(2-fluoro-4-methyl-phenyl)-6-methyl-4-oxo-pyridine-3-carboxylic acid] | 5 (5=81-100%) | 2 (2=21-40%) | 2 (2=21-40%) | 5 (5=81-100%) | 5 (5=81-100%) | 1 (1=0-20%) | 3 (3=41-60%) | 4 (4=61-80%) | 2 (2=21-40%) | 1 (1=0-20%) | 4 (4=61-80%) | –
